# Like-named read-outs stand apart in the source and are kept apart here. Where a SMILES comes first, the peptide text is derived from it. [ ]: non-standard residue; d: D form. ξ: configuration not given here. Oic = O=C(O)[C@@H]1C[C@@H]2CCCC[C@@H]2N1; Tic = O=C(O)[C@@H]1Cc2ccccc2CN1; ξTic = O=C(O)C1Cc2ccccc2CN1; ξOic = O=C(O)C1CC2CCCCC2N1; GABA = NCCCC(=O)O
# What was measured:
# [1] = system: Staphylococcus aureus Methicillin/Gentamicin/Tetracycline Resistant (ATCC 33592); conditions: for Minimum Inhibitory Concentration Staphylococcus aureus ME/GM/TC resistant: in vitro MIC, tested at 100, 30, 10, 3, 1, 0.3 and 0.1 μM in 1% DMSO; for p(MIC) Staphylococcus aureus ME/GM/TC resistant: -log(MIC); for Actual Bioactivity: p(MIC) used in Staphylococcus aureus QSAR model
# [2] = system: Plasmodium falciparum W2 (CDC Indochina III chloroquine, quinine, pyrimethamine and sulfadoxine-resistant)
# [3] = system: Plasmodium falciparum D6 (CDC Sierra Leone, mefloquine resistant)
# [4] = system: Salmonella typhimurium (ATCC 13311); conditions: for p(MIC) Salmonella typhimurium: -log(MIC); for MIC Salmonella typhimurium: ATCC 13311
# red blood cells [5] = test: Hemolytic studies
# [6] = Metabolic stability, mouse liver microsomes
# [7] = system: Mycobacterium ranae (ATCC 110)
# [8] = system: Bacillus subtillis (ATCC 43223); conditions: for MIC Bacillus Subtillis: ATCC 43223
# [9] = Metabolic stability, human liver microsomes; conditions: for % remaining at time T, Human Liver: 0.5 mg/mL microsomes
# [10] = Metabolic stability, dog liver microsomes
# [11] = Metabolic stability, monkey liver microsomes
# [12] = Metabolic stability, rat liver microsomes
# red blood cells [13] = conditions: 100 μM
# [14] = Minimal Inhibitory Concentration, tested at 100-0.1 in 1% DMSO
# [15] = liver microsomes, 1 μM, T = 60 min
compound,measurement,setting,value
"CC(C)C[C@H](NC(=O)CNC(=O)[C@H](CCCCN)NC(=O)CN)C(=O)N1Cc2ccccc2CC1C(=O)N1C(C(=O)NCC(=O)N[C@@H](CCCCN)C(=O)N2Cc3ccccc3CC2C(=O)N2C(C(=O)NCC(=O)N[C@@H](Cc3ccccc3)C(=O)N3Cc4ccccc4CC3C(=O)N3C(C(=O)NCC(=O)N[C@@H](CCCCN)C(=O)N4Cc5ccccc5CC4C(=O)N4C(C(=O)NCC(=O)N[C@@H](Cc5ccccc5)C(=O)N5Cc6ccccc6CC5C(=O)N5C(C(=O)NCC(=O)N[C@@H](CCCCN)C(=O)N6Cc7ccccc7CC6C(=O)N6C(C(=O)NCC(=O)N[C@@H](CCCCN)C(=O)N[C@@H](CCCNC(=N)N)C(N)=O)CC7CCCCC76)CC6CCCCC65)CC5CCCCC54)CC4CCCCC43)CC3CCCCC32)CC2CCCCC21 (stereo partly drawn) [WRFK-1, NH2-GKGL-Tic-Oic-GK-Tic-Oic-GF-Tic-Oic-GK-Tic-Oic-GF-Tic-Oic-GK-Tic-Oic-GKR-CONH2] (H-GKGL[ξTic][ξOic]GK[ξTic][ξOic]GF[ξTic][ξOic]GK[ξTic][ξOic]GF[ξTic][ξOic]GK[ξTic][ξOic]GKR-NH2)",MIC Staphylococcus aureus ME/GM/TC resistant,[1]; [14],0.01 mM
same,Minimum Inhibitory Concentration Staphylococcus aureus ME/GM/TC resistant,[1],10 µM
same,IC50 * W2,[2],5.7 mg/L
same,IC50 * D6,[3],7.3 mg/L
"CC(C)C[C@H](NC(=O)CNC(=O)[C@H](CCCCN)NC(=O)CN)C(=O)N1Cc2ccccc2C[C@H]1C(=O)N1[C@H](C(=O)NCC(=O)N[C@@H](CCCCN)C(=O)N2Cc3ccccc3C[C@H]2C(=O)N2[C@H](C(=O)NCC(=O)N[C@@H](CC(C)C)C(=O)N3Cc4ccccc4C[C@H]3C(=O)N3[C@H](C(=O)NCC(=O)N[C@@H](CCCCN)C(=O)N4Cc5ccccc5C[C@H]4C(=O)N4[C@H](C(=O)NCC(=O)N[C@@H](CC(C)C)C(=O)N5Cc6ccccc6C[C@H]5C(=O)N5[C@H](C(=O)NCC(=O)N[C@@H](CCCCN)C(=O)N6Cc7ccccc7C[C@H]6C(=O)N6[C@H](C(=O)NCC(=O)N[C@@H](CCCCN)C(=O)N[C@@H](CCCNC(=N)N)C(N)=O)C[C@@H]7CCCC[C@@H]76)C[C@@H]6CCCC[C@@H]65)C[C@@H]5CCCC[C@@H]54)C[C@@H]4CCCC[C@@H]43)C[C@@H]3CCCC[C@@H]32)C[C@@H]2CCCC[C@@H]21 [WRFK-4, NH2-GKGL-Tic-Oic-GK-Tic-Oic-GL-Tic-Oic-GK-Tic-Oic-GL-Tic-Oic-GK-Tic-Oic-GKR-CONH2] (H-GKGL[Tic][Oic]GK[Tic][Oic]GL[Tic][Oic]GK[Tic][Oic]GL[Tic][Oic]GK[Tic][Oic]GKR-NH2)",p(MIC) Staphylococcus aureus ME/GM/TC resistant,[1],5.00
same,Actual Bioactivity,[1],5.000
same,p(MIC) Salmonella typhimurium,[4],4.00
same,MIC Salmonella typhimurium,[4],0.1 mM
same,% hemolysis / Hemolytic activity,red blood cells [5]; concentration not given,100%
same,IC50 * W2,[2],6.5 mg/L
same,IC50 * D6,[3],7.8 mg/L
"CC(=O)NCCCC(=O)N[C@@H](Cc1ccccc1)C(=O)N1Cc2ccccc2CC1C(=O)N1C(C(=O)NCCCC(=O)N[C@@H](CCCCN)C(=O)N2Cc3ccccc3CC2C(=O)N2C(C(=O)NCCCC(=O)N[C@@H](Cc3ccccc3)C(=O)N3Cc4ccccc4CC3C(=O)N3C(C(=O)NCCCC(=O)N[C@@H](CCCCN)C(=O)N4Cc5ccccc5CC4C(=O)N[C@@H](CCCCN)C(=O)N[C@@H](CCCCN)C(=O)N[C@@H](CCCCN)C(=O)N[C@@H](CCCCN)C(N)=O)CC4CCCCC43)CC3CCCCC32)CC2CCCCC21 (stereo partly drawn) [FKAB-1Gd, Ac-Gaba-F-Tic-Oic-Gaba-K-Tic-Oic-Gaba-F-Tic-Oic-Gaba-K-Tic-KKKK-CONH2] (Ac-[GABA]F[ξTic][ξOic][GABA]K[ξTic][ξOic][GABA]F[ξTic][ξOic][GABA]K[ξTic]KKKK-NH2)",metabolic stability T = 60 min mouse,[6]; [15],very low
same,"remaining at 0.25 h, 1 μM","[6]; mouse, microsomes, pH 7.4",90%
same,"remaining at 0.5 h, 1 μM","[6]; mouse, microsomes, pH 7.4",7%
same,"remaining at 1 h, 1 μM","[6]; mouse, microsomes, pH 7.4",9%
same,MIC Mycobacterium ranae,[7]; ATCC 110,0.01 mM
same,Minimum Inhibitory Concentration Mycobacterium ranae,[7]; ATCC 110,10 µM
same,MIC Staphylococcus aureus ME/GM/TC resistant,[1]; ATCC 33592,0.1 mM
same,MIC Bacillus Subtillis,[8],0.001 mM
same,MIC Salmonella typhimurium,[4],0.01 mM
same,"remaining at 0.25 h, 1 μM","[9]; human, microsomes, pH 7.4",106%
same,metabolic stability T = 60 min human,[9]; [15],high
same,"% remaining at time T, Human Liver","[9]; second human column (T = 30 min, head not given), 1 μM",94%
same,"% remaining at time T, Human Liver","[9]; third human column (T = 60 min, head not given), 1 μM",114%
same,"% remaining, Dog Liver T = 15","[10]; T = 15 min, 1 μM, 0.5 mg/mL microsomes",35%
same,"remaining at 0.5 h, 1 μM","[10]; dog, microsomes, pH 7.4",34%
same,"remaining at 1 h, 1 μM","[10]; dog, microsomes, pH 7.4",55%
same,metabolic stability T = 60 min dog,[10]; [15],High
same,metabolic stability T = 60 min monkey,[11]; [15],high
same,"remaining at 0.25 h, 1 μM","[11]; monkey, microsomes, pH 7.4",16%
same,"remaining at 0.5 h, 1 μM","[11]; monkey, microsomes, pH 7.4",25%
same,"remaining at 1 h, 1 μM","[11]; monkey, microsomes, pH 7.4",76%
same,% hemolysis 100/25 μM (first value),red blood cells [5]; 100 μM,10.8%/
same,metabolic stability T = 60 min rat,[12]; [15],high
same,"remaining at 0.25 h, 1 μM","[12]; rat, microsomes, pH 7.4",67%
same,"remaining at 0.5 h, 1 μM","[12]; rat, microsomes, pH 7.4",78%
same,"remaining at 1 h, 1 μM","[12]; rat, microsomes, pH 7.4",83%
"CC(C)C[C@H](NC(=O)CNC(=O)[C@@H]1C[C@@H]2CCCC[C@@H]2N1C(=O)[C@@H]1Cc2ccccc2CN1C(=O)[C@H](CC(C)C)NC(=O)CNC(=O)[C@@H]1C[C@@H]2CCCC[C@@H]2N1C(=O)[C@@H]1Cc2ccccc2CN1C(=O)[C@H](CCCCN)NC(=O)CNC(=O)[C@@H]1C[C@@H]2CCCC[C@@H]2N1C(=O)[C@@H]1Cc2ccccc2CN1C(=O)[C@H](CC(C)C)NC(=O)CNC(=O)[C@@H]1C[C@@H]2CCCC[C@@H]2N1C(=O)[C@@H]1Cc2ccccc2CN1C(=O)[C@H](CCCCN)NC(=O)CNC(=O)[C@@H]1C[C@@H]2CCCC[C@@H]2N1C(=O)[C@@H]1Cc2ccccc2CN1C(=O)[C@H](CC(C)C)NC(=O)CNC(=O)[C@@H]1C[C@@H]2CCCC[C@@H]2N1C(=O)[C@@H]1Cc2ccccc2CN1C(=O)[C@H](CC(C)C)NC(=O)CNC(=O)[C@H](CCCCN)NC(=O)CN)C(=O)N[C@@H](CCCNC(=N)N)C(N)=O [WRFK-3, NH2-GKGL-Tic-Oic-GL-Tic-Oic-GK-Tic-Oic-GL-Tic-Oic-GK-Tic-Oic-GL-Tic-Oic-GLR-CONH2] (H-GKGL[Tic][Oic]GL[Tic][Oic]GK[Tic][Oic]GL[Tic][Oic]GK[Tic][Oic]GL[Tic][Oic]GLR-NH2)",p(MIC) Staphylococcus aureus ME/GM/TC resistant,[1],4.00
same,MIC Staphylococcus aureus ME/GM/TC resistant,[1]; [14],0.1 mM
same,Minimum Inhibitory Concentration Staphylococcus aureus ME/GM/TC resistant,[1],100 µM
same,Actual Bioactivity,[1],4.000
same,% hemolysis 100/25 μM (first value),red blood cells [13],100%
same,Minimum Inhibitory Concentration Salmonella typhimurium,"[4]; in vitro MIC, tested at 100, 30, 10, 3, 1, 0.3 and 0.1 μM in 1% DMSO",not active
same,IC50 * W2,[2],7.2 mg/L
same,IC50 * D6,[3],5.2 mg/L
"CC(C)C[C@H](NC(=O)CNC(=O)[C@H](CCCCN)NC(=O)CN)C(=O)N1Cc2ccccc2C[C@H]1C(=O)N1[C@H](C(=O)N[C@@H](Cc2ccccc2)C(=O)N[C@@H](CCCCN)C(=O)N2Cc3ccccc3C[C@H]2C(=O)N2[C@H](C(=O)N[C@@H](CCCCN)C(=O)N[C@@H](Cc3ccccc3)C(=O)N3Cc4ccccc4C[C@H]3C(=O)N3[C@H](C(=O)N[C@@H](Cc4ccccc4)C(=O)N[C@@H](CCCCN)C(=O)N4Cc5ccccc5C[C@H]4C(=O)N4[C@H](C(=O)N[C@@H](CCCCN)C(=O)N[C@@H](Cc5ccccc5)C(=O)N5Cc6ccccc6C[C@H]5C(=O)N5[C@H](C(=O)N[C@@H](Cc6ccccc6)C(=O)N[C@@H](CCCCN)C(=O)N6Cc7ccccc7C[C@H]6C(=O)N6[C@H](C(=O)N[C@@H](Cc7ccccc7)C(=O)N[C@@H](CCCCN)C(=O)N[C@@H](CCCNC(=N)N)C(N)=O)C[C@@H]7CCCC[C@@H]76)C[C@@H]6CCCC[C@@H]65)C[C@@H]5CCCC[C@@H]54)C[C@@H]4CCCC[C@@H]43)C[C@@H]3CCCC[C@@H]32)C[C@@H]2CCCC[C@@H]21 [WRFK-5, NH2-GKGL-Tic-Oic-FK-Tic-Oic-KF-Tic-Oic-FK-Tic-Oic-KF-Tic-Oic-FK-Tic-Oic-FKR-CONH2] (H-GKGL[Tic][Oic]FK[Tic][Oic]KF[Tic][Oic]FK[Tic][Oic]KF[Tic][Oic]FK[Tic][Oic]FKR-NH2)",Actual Bioactivity,[7],0.000
same,MIC Mycobacterium ranae,[7],1000 mM
same,Minimum Inhibitory Concentration Mycobacterium ranae,[7],not active
same,p(MIC) Staphylococcus aureus ME/GM/TC resistant,[1],4.52
same,MIC Staphylococcus aureus ME/GM/TC resistant,[1]; [14],0.03 mM
same,Minimum Inhibitory Concentration Staphylococcus aureus ME/GM/TC resistant,[1],30 µM
same,Actual Bioactivity,[1],4.520
same,p(MIC) Bacillus Subtillis,[8]; -log(MIC),5.52
same,MIC Bacillus Subtillis,[8],0.003 mM
same,% hemolysis 100/25 μM (first value),red blood cells [13],100%
same,p(MIC) Salmonella typhimurium,[4],4.00
same,MIC Salmonella typhimurium,[4],0.1 mM
same,IC50 * W2,[2],4.2 mg/L
same,IC50 * D6,[3],3.9 mg/L

# — patent US20120197004A1, “NOVEL ANTI-MICROBIAL PEPTIDOMIMETIC COMPOUNDS AND METHODS TO CALCULATE ANTI-MICROBIAL ACTIVITY” (priority 2006, published 2012)
